From patent US20100240594A1, “TARGETED DELIVERY OF CHEMOTHERAPEUTIC AGENTS” (Burnham Institute for Medical Research, priority 2009, published 2010)

Test system: pre-established subcutaneous PC3 tumors
Experiment: Tumor growth in PC3 tumor-bearing mice treated i.v. twice a week
Assay type: in vivo, SCID-beige mice
Details: i.v. twice weekly from day 19 for ~3 weeks; taxol 5 mg/Kg, doxorubicin 2 mg/Kg, YSA conjugates at 1 and 5 fold molar equivalents of the parent drug dose
Method: Tumor sizes were measured and averages +/−SE are shown. The data in (A) and (B) are from the same experiment and share the same control.

Structure (SMILES) | tumor growth inhibition compared with vehicle control
CC(=O)O[C@H]1C(=O)[C@@]2(C)[C@H]([C@H](OC(=O)c3ccccc3)[C@]3(O)C[C@H](OC(=O)[C@H](O)[C@@H](NC(=O)c4ccccc4)c4ccccc4)C(C)=C1C3(C)C)[C@]1(OC(C)=O)CO[C@@H]1C[C@@H]2O [taxol] | not significantly different from vehicle control
COc1cccc2c1C(=O)c1c(O)c3c(c(O)c1C2=O)C[C@@](O)(C(=O)CO)C[C@@H]3O[C@H]1C[C@H](N)[C@H](O)[C@H](C)O1 [doxorubicin] | not significantly different from vehicle control
